Tests used:
Type in all cases: functional
Settings in all cases: read-out: Activity
SH-SY5Y [1] = assay: Neuroprotective activity against H2O2-induced cell death in human SH-SY5Y cells assessed as cell viability at 100 uM preincubated for 1 hr followed by H2O2 addition and measured after 4 hrs by CCK8 assay (reference value: 61.14 +/- 1.05%)
SH-SY5Y [2] = assay: Neuroprotective activity against H2O2-induced cell death in human SH-SY5Y cells assessed as cell viability at 50 uM preincubated for 1 hr followed by H2O2 addition and measured after 4 hrs by CCK8 assay (reference value: 61.14 +/- 1.05%)
SH-SY5Y [3] = assay: Neuroprotective activity against H2O2-induced cell death in human SH-SY5Y cells assessed as cell viability at 25 uM preincubated for 1 hr followed by H2O2 addition and measured after 4 hrs by CCK8 assay (reference value: 61.14 +/- 1.05%)

Which results are given for `COC(=O)[C@H]1O[C@@H](O[C@H]2CC[C@@]3(C)[C@@H](CC[C@]4(C)[C@@H]3CC=C3[C@@H]5CC(C)(C)CC[C@]5(C(=O)O[C@@H]5O[C@H](CO)[C@@H](O)[C@H](O)[C@H]5O)CC[C@]34C)[C@]2(C)CO)[C@H](O[C@@H]2O[C@H](CO)[C@@H](O)[C@H](O)[C@H]2O[C@@H]2OC[C@H](O)[C@H](O)[C@H]2O)[C@@H](O)[C@@H]1O`?
viability at 100 µM (SH-SY5Y [1]): 63.1%; viability at 50 µM (SH-SY5Y [2]): 62.9%; viability at 25 µM (SH-SY5Y [3]): 61.9%

How did the viability at 100 µM (SH-SY5Y [1]) turn out when `CC1(C)CC[C@]2(C(=O)O)CC[C@]3(C)C(=CC[C@@H]4[C@@]5(C)C[C@H](O)[C@H](O)[C@@](C)(C(=O)O)[C@@H]5CC[C@]43C)[C@@H]2C1` was run?
The viability at 100 µM was 62.2%.

And the viability at 50 µM (SH-SY5Y [2])?
Its viability at 50 µM is 61.1%.

And the viability at 25 µM (SH-SY5Y [3])?
The viability at 25 µM was 60.1%.

Which results are given for `COC(=O)[C@H]1O[C@@H](O[C@H]2[C@@H](O)C[C@@]3(C)[C@@H](CC[C@]4(C)[C@@H]3CC=C3[C@@H]5CC(C)(C)CC[C@]5(C(=O)O[C@@H]5O[C@H](CO)[C@@H](O)[C@H](O)[C@H]5O)CC[C@]34C)[C@]2(C)CO)[C@H](O)[C@@H](O)[C@@H]1O[C@@H]1OC[C@@H](O)[C@H](O)[C@H]1O`?
viability at 100 µM (SH-SY5Y [1]): 73%; viability at 50 µM (SH-SY5Y [2]): 64.8%; viability at 25 µM (SH-SY5Y [3]): 62.1%

For `Cc1c(C)c2c(c(C)c1O)CCC(C)(C(=O)O)O2` (stereo not given) [TROLOX], which viability at 100 µM (SH-SY5Y [1]) is on record?
Its viability at 100 µM is 78.2%.

What about the viability at 50 µM (SH-SY5Y [2]) of the same compound?
Its viability at 50 µM is 75.3%.

And the viability at 25 µM (SH-SY5Y [3])?
The viability at 25 µM was 70.2%.

Which results are given for `COC(=O)[C@H]1O[C@@H](O[C@H]2[C@@H](O)C[C@@]3(C)[C@@H](CC[C@]4(C)[C@@H]3CC=C3[C@@H]5CC(C)(C)CC[C@]5(C(=O)O[C@@H]5O[C@H](CO)[C@@H](O)[C@H](O)[C@H]5O)CC[C@]34C)[C@]2(C)CO)[C@H](O[C@@H]2O[C@H](CO)[C@H](O)[C@H](O)[C@H]2O)[C@@H](O)[C@@H]1O`?
viability at 100 µM (SH-SY5Y [1]): 67.1%; viability at 50 µM (SH-SY5Y [2]): 61.2%; viability at 25 µM (SH-SY5Y [3]): 60.7%
